{"source": "patent US20260265299A1", "about": "“SYNTHESIS OF BICYCLE TOXIN CONJUGATES, AND INTERMEDIATES THEREOF” (priority 2023, published 2026)", "type_in_all_cases": "physicochemical", "key": {"[1]": {"assay": "Stress test of gvcMMAE at different drying temperature (HPLC)", "conditions": "for HPLC/area % gvcMMAE: dry", "procedure": "3.3.13. Stress Test of gvcMMAE at Different Drying Temperature (Table 22 and 23)\nStress test of gvcMMAE at different drying temperatures was done. According to the result listed below, gvcMMAE was stable at 40° C. for 3 days."}, "[2]": {"assay": "Moisture absorption experiment at 60% RH", "conditions": "3 days", "procedure": "100 mg of gvcMMAE was stood at 60% RH condition to do a moisture absorption experiment. The solid state had no change (The weight changed to 103 mg) after 3 days."}, "[3]": {"assay": "Solubility of gvcMMAE in different solvents (assay in mother liquor)", "conditions": "for Assay in ML (w/w %): 20-30° C., 0.5 h, free acid state", "from_the_text": "3.3.6. Study the Solubility of gvcMMAE in Different Solvents (Table 10)\nSolubility of gvcMMAE (free acid state) in different solvents (THF, DCM, MTBE, n-Heptane, iPrOAc, 1,4-dioxane) were investigated."}, "[4]": {"assay": "DVS test (hygroscopicity)", "procedure": "(Uptake 3.6% water on sorption curve between 40% RH and 80% RH, at 25° C.)."}}, "note": "Starred links: 1 amine or outer side, 2 acyl side, 3 side chain; linkers in the order of their positions; H or OH if unused. Non-standard residues stand in square brackets, D forms with d. Residues, ends and D or L forms follow the SMILES beside them. ξ: configuration not given here. *: point of attachment. Dolaproine = CO[C@@H]([C@@H]1CCCN1)[C@@H](C)C(=O)O; ξDil = CC[C@H](C)C([C@@H](CC(=O)[*:2])OC)N(C)[*:1]; PABC = O=C(OCc1ccc(N[*:1])cc1)[*:2]; Glutaryl = O=C(CCCC(=O)[*:2])[*:1]; X1 = C[C@@H](N*)[C@@H](O)c1ccccc1; Cit = NC(=O)NCCC[C@H](N)C(=O)O; NMeV = CN[C@H](C(=O)O)C(C)C", "data": [{"smiles": "CC[C@H](C)C([C@@H](CC(=O)N1CCC[C@H]1[C@H](OC)[C@@H](C)C(=O)N[C@H](C)[C@@H](O)c1ccccc1)OC)N(C)C(=O)[C@@H](NC(=O)[C@H](C(C)C)N(C)C(=O)OCc1ccc(NC(=O)[C@H](CCCNC(N)=O)NC(=O)[C@@H](NC(=O)CCCC(=O)O)C(C)C)cc1)C(C)C", "note": "(stereo partly drawn) [gvcMMAE, Glutaryl-Val-Cit-PAB-MMAE] (Glutaryl-V[Cit][PABC][NMeV]V[ξDil][Dolaproine]-X1)", "values": [{"measurement": "HPLC/area % gvcMMAE", "setting": "[1]; 20° C., 3 days", "value": 98.62, "unit": "area %"}, {"measurement": "HPLC/area % gvcMMAE", "setting": "[1]; 30° C., 3 days", "value": 98.65, "unit": "area %"}, {"measurement": "Stability at drying temperature (in words)", "setting": "[1]; 40° C. for 3 days", "value": "stable"}, {"measurement": "HPLC/area % gvcMMAE", "setting": "[1]; 40° C., 3 days", "value": 98.61, "unit": "area %"}, {"measurement": "HPLC/area % gvcMMAE", "setting": "[1]; 50° C., 3 days", "value": 98.52, "unit": "area %"}, {"measurement": "HPLC/area % gvcMMAE", "setting": "[1]; before stress test", "value": 98.54, "unit": "area %"}, {"measurement": "Solid state after moisture absorption", "setting": "[2]; 100 mg", "value": "no change"}, {"measurement": "Weight after moisture absorption", "setting": "[2]; starting from 100 mg", "value": 103, "unit": "mg"}, {"measurement": "Assay in ML (w/w %)", "setting": "[3]; 1,4-dioxane 20 v", "value": 0.22, "unit": "w/w %"}, {"measurement": "Assay in ML (w/w %)", "setting": "[3]; DCM 20 v", "value": 0.00, "unit": "w/w %"}, {"measurement": "Assay in ML (w/w %)", "setting": "[3]; MTBE 20 v", "value": 0.00, "unit": "w/w %"}, {"measurement": "Assay in ML (w/w %)", "setting": "[3]; N-heptane 20 v", "value": 0.00, "unit": "w/w %"}, {"measurement": "Assay in ML (w/w %)", "setting": "[3]; THF 20 v", "value": 0.47, "unit": "w/w %"}, {"measurement": "Solubility in solvents (in words)", "setting": "[3]; THF, DCM, MTBE, n-Heptane, iPrOAc, 1,4-dioxane", "value": "insoluble in most solvents"}, {"measurement": "Assay in ML (w/w %)", "setting": "[3]; iPrOAc 20 v", "value": 0.00, "unit": "w/w %"}, {"measurement": "Hygroscopicity (DVS)", "setting": "[4]; 80% RH at 25° C.", "value": "hygroscopic"}, {"measurement": "Water uptake on sorption curve", "setting": "[4]; between 40% RH and 80% RH, at 25° C.", "value": 3.6, "unit": "%"}]}]}
